Patent publication US20130210034A1, “COMPLEX PHOSPHOPROTEIN ACTIVATION PROFILES” (BECKMAN COULTER, INC., priority 2005, published 2013)
Values joined by “and” are separate entries in the source; they are usually repeats but may differ in a detail not shown here. Identical values can stand only once.

Legend:
Test in all cases: Cytokine-stimulated phosphorylation in immunophenotypically defined cell populations from healthy donor BM (flow cytometry);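 on pAKT S/N ratio: Phosphoprotein MFI normalized to lymphocyte MFI as internal negative control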;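 on pERK S/N ratio: Phosphoprotein MFI normalized to lymphocyte MFI as internal negative control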;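 on pS6 S/N ratio: Phosphoprotein MFI normalized to lymphocyte MFI as internal negative control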;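 on pSTAT5 S/N ratio: Phosphoprotein MFI normalized to lymphocyte MFI as internal negative control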
Type in all cases: cell-based, human
pAKT = settings: for pAKT Percent (%) Responding Cells, Mean / pAKT S/N ratio: healthy donor BM, mean ± SD
Procedure: (§1) Bone marrow (BM) samples were collected in 7.5 mL Iscove's modified Dulbecco's medium (IMDM) supplemented with 100U penicillin, 0.01 mg/mL streptomycin, and 70 μg/mL heparin sodium salt from 10 patients undergoing hip replacement surgery, who were otherwise healthy. These patients were from a pool of surgery patients, age 49 to 77, and represented […] patients. […] These BM samples were rinsed twice with IMDM to release cells, filtered using a 100 μm Nylon cell strainer to remove marrow particles, and centrifuged for at RT fro 7 minutes at 200 g. The cell pellet was washed twice with sterile IMDM to remove traces of fat and re-suspended in IMDM to a concentration of 3×10^7 cells/mL.
(§2) To assess the signal transduction response after growth factor simulation, a series comprising two sets of tubes including about 3×10^6 cells/100 μL were incubated at 37° C. for 30 minutes. After this pre-incubation period, tubes with then processes with either a stimulant or inhibitor. […] To examine the effects of protein phosphorylation inhibition, tubes were incubated with an inhibitor cocktail comprising 100 μM/100 μL UO126, 1 μM/100 μL LY294002, and 1 μM/100 μL rapamycin. One unstimulated tube receiving no stimulant or inhibitor was processed to assess basal levels of phospho-protein expression. After stimulation the cells were immediately fixed in 10% formaldehyde solution at 37° C. Pre-labeling with CD13, CD16 and CD64 antibodies was carried out 20 minutes prior to formaldehyde fixation. After fixation, one set of tubes was permeabilized without methanol for pAKT, pERK and pS6 staining and the other for 80% methanol permeabilized for pSTAT3 and pSTAT5 staining. After permeablization, the cells were washed in PBS with 2% BSA and blocked by re-suspended in 75 μL of PBS comprising 25% heat inactivated normal mouse serum, 25% normal rabbit serum. To stain cells with fluorescent conjugated monoclonal antibodies, samples were incubated on ice for 45 minutes in 100 μL of an antibody staining solution including either: 1) CD15-Pacific Orange, CD34-Phycoerythrin-Texas Red, CD117-Phycoerythrin-Cyanin 5.5, CD45-Allophycocyanin-Alexa Fluor 750 (or CD45-Pacific Orange, in which case CD15-Pacific Orange was omitted), pS6-Pacific Blue, pERK-Alexa Fluor 488 and pAKT-Alexa Fluor 647 or 2) CD15-Pacific Orange, CD34-Phycoerythrin-Texas Red, CD117-Phycoerythrin-Cyanin 5.5, CD45-Allophycocyanin-Alexa Fluor 750 or CD45-Pacific Blue, pSTAT3-Alexa Fluor 488 and pSTAT5-Phycoerythrin. The stained cells were washed twice with ice cold PBS containing 2% BSA and centrifuged at 800 g for 6 minutes at 4° C. The supernatant was discarded and cells re-suspended in 250 μL of chilled wash buffer for data acquisition. Stained cells were examined using either GALIOS flow cytometer (Beckman Coulter) or CYAN ADP (Beckman Coulter) equipped with 488 nm, 405 nm and 635 nm lasers to detect the degree of fluorescence. Data were analyzed using FCS Express (De Novo Software, CA) analysis software.
(§3) Specific phosphoprotein expression of pERK, pS6, pAKT, pSTAT5, and pSTAT3 was examined in seven discrete phenotypically defined populations based on 7-color immunophenotyping (FIG. 1). The percent of responding (phosphorprotein positive) cells for each of these populations was determined from individual single parameter histograms based on a fixed integration region set on the inhibitor treated control at about 3% positives.

pS6 = settings: for pS6 Percent (%) Responding Cells, Mean / pS6 S/N ratio: healthy donor BM, mean ± SD
Procedure: as §1, §2, §3

pERK = settings: for pERK Percent (%) Responding Cells, Mean / pERK S/N ratio: healthy donor BM, mean ± SD
Procedure: as §1, §2, §3

pSTAT5 = settings: healthy donor BM, mean ± SD
Procedure: as §1, §2, §3

pSTAT3 = settings: healthy donor BM, mean ± SD
Procedure: as §1, §2, §3

## Stem Cell Factor [SCF]
pAKT; CD34^+ (CD34^+/CD117^+ cells)
  pAKT Percent (%) Responding Cells, Mean: 58.0% and 58.0 ± 27.3%
  pAKT S/N ratio: 7.5 and 7.5 ± 5.7
pAKT; CD117^+ (CD34^−/CD117^+ cells)
  pAKT Percent (%) Responding Cells, Mean: 60.6% and 60.6 ± 33.5%
  pAKT S/N ratio: 7.3 ± 5.4
pAKT; G1, immature myeloid cells
  pAKT Percent (%) Responding Cells, Mean: 2.9 ± 2.4%
  pAKT S/N ratio: 2.2 ± 1.1
pAKT; G2, intermediate myeloid cells
  pAKT Percent (%) Responding Cells, Mean: 3.9 ± 3.9%
  pAKT S/N ratio: 2.3 ± 1.0
pAKT; G3, mature myeloid cells
  pAKT Percent (%) Responding Cells, Mean: 4.2 ± 3.0%
  pAKT S/N ratio: 2.6 ± 1.2
pAKT; Mono, monocytes
  pAKT Percent (%) Responding Cells, Mean: 6.5 ± 8.2%
  pAKT S/N ratio: 2.4 ± 1.0
pAKT; Table 7 comparison value
  pAKT, Normal Sample: 58.0
pS6; CD34^+ (CD34^+/CD117^+ cells)
  pS6 Percent (%) Responding Cells, Mean: 81.7% and 81.7 ± 16.3%
  pS6 S/N ratio: 48.4 and 48.4 ± 39.3
pS6; CD34^−CD117^+ cells, normal BM, non-homogeneous response
  pS6 fraction positive responding: 53.8%
pS6; CD117^+ (CD34^−/CD117^+ cells)
  pS6 Percent (%) Responding Cells, Mean: 51.9% and 51.9 ± 16.9%
  pS6 S/N ratio: 108.2 ± 94.9
pS6; G1, immature myeloid cells
  pS6 Percent (%) Responding Cells, Mean: 2.1 ± 1.4%
  pS6 S/N ratio: 3.3 ± 1.9
pS6; G2, intermediate myeloid cells
  pS6 Percent (%) Responding Cells, Mean: 2.1 ± 1.2%
  pS6 S/N ratio: 2.9 ± 1.8
pS6; G3, mature myeloid cells
  pS6 Percent (%) Responding Cells, Mean: 3.8 ± 2.6%
  pS6 S/N ratio: 3.5 ± 2.3
pS6; Mono, monocytes
  pS6 Percent (%) Responding Cells, Mean: 43.5 ± 19.9%
  pS6 S/N ratio: 11.2 ± 12.3
pERK; CD34^+ (CD34^+/CD117^+ cells)
  pERK Percent (%) Responding Cells, Mean: 89.8% and 89.8 ± 6.9%
  pERK S/N ratio: 13.3 and 13.3 ± 4.9
pERK; CD117^+ (CD34^−/CD117^+ cells)
  pERK Percent (%) Responding Cells, Mean: 67.7% and 67.7 ± 20.1%
  pERK S/N ratio: 8.6 ± 3.2
pERK; G1, immature myeloid cells
  pERK Percent (%) Responding Cells, Mean: 1.6 ± 0.8%
  pERK S/N ratio: 2.9 ± 0.6
pERK; G2, intermediate myeloid cells
  pERK Percent (%) Responding Cells, Mean: 2.8 ± 2.1%
  pERK S/N ratio: 2.7 ± 0.5
pERK; G3, mature myeloid cells
  pERK Percent (%) Responding Cells, Mean: 6.5 ± 7.2%
  pERK S/N ratio: 3.1 ± 0.6
pERK; Mono, monocytes
  pERK Percent (%) Responding Cells, Mean: 13.6 ± 3.6%
  pERK S/N ratio: 3.2 ± 2.1
pERK; Table 7 comparison value, matches S/N ratio of Table 1
  pERK, Normal Sample (first AML5 line): 13.3
pERK; Table 7 comparison value, matches percent responding CD34^+ cells of Tables 1-5
  pERK, Normal Sample: 89.8
pSTAT5; CD34^+ (CD34^+/CD117^+ cells)
  pSTAT5 Percent (%) Responding Cells, Mean: 11.6 ± 3.0%
  pSTAT5 S/N ratio: 1.5 ± 0.9
pSTAT5; CD117^+ (CD34^−/CD117^+ cells)
  pSTAT5 Percent (%) Responding Cells, Mean: 7.4 ± 4.7%
  pSTAT5 S/N ratio: 2.2 ± 0.7
pSTAT5; G1, immature myeloid cells
  pSTAT5 Percent (%) Responding Cells, Mean: 6.8 ± 8.0%
  pSTAT5 S/N ratio: 3.1 ± 0.7
pSTAT5; G2, intermediate myeloid cells
  pSTAT5 Percent (%) Responding Cells, Mean: 4.9 ± 5.6%
  pSTAT5 S/N ratio: 3.2 ± 0.7
pSTAT5; G3, mature myeloid cells
  pSTAT5 Percent (%) Responding Cells, Mean: 6.9 ± 6.7%
  pSTAT5 S/N ratio: 3.8 ± 0.8
pSTAT5; Mono, monocytes
  pSTAT5 Percent (%) Responding Cells, Mean: 9.5 ± 13.8%
  pSTAT5 S/N ratio: 2.5 ± 0.6
pSTAT3; CD34^+ (CD34^+/CD117^+ cells)
  pSTAT3 Percent (%) Responding Cells, Mean: 7.3 ± 4.3%
  pSTAT3 S/N ratio: 1.9 ± 0.2
pSTAT3; CD117^+ (CD34^−/CD117^+ cells)
  pSTAT3 Percent (%) Responding Cells, Mean: 2.6 ± 1.4%
  pSTAT3 S/N ratio: 2.5 ± 0.6
pSTAT3; G1, immature myeloid cells
  pSTAT3 Percent (%) Responding Cells, Mean: 3.0 ± 3.5%
  pSTAT3 S/N ratio: 3.3 ± 0.5
pSTAT3; G2, intermediate myeloid cells
  pSTAT3 Percent (%) Responding Cells, Mean: 2.2 ± 1.8%
  pSTAT3 S/N ratio: 3.3 ± 0.5
pSTAT3; G3, mature myeloid cells
  pSTAT3 Percent (%) Responding Cells, Mean: 4.7 ± 4.0%
  pSTAT3 S/N ratio: 3.6 ± 0.6
pSTAT3; Mono, monocytes
  pSTAT3 Percent (%) Responding Cells, Mean: 4.4 ± 2.0%
  pSTAT3 S/N ratio: 2.4 ± 0.3
